Assay results reported in US11365196B2, “FGFR inhibitor and application thereof” (Betta Pharmaceuticals Co., Ltd., priority 2017, dated 2022).
Where two headings read alike, the source gives them in different places. One block for each molecule: values may come before it.

Key:
FGFR2 [1] = target: T1, FGFR2 (Homo sapiens (Human), UniProt P21802); assay: Kinase assay Method 1, mobility shift assay; type: biochemical; conditions: ATP at Km, read-out: IC50(nM) value of compounds FGFR2
FGFR3 [2] = target: T2, FGFR3 (Homo sapiens (Human), UniProt P22607); assay: Kinase assay Method 1, mobility shift assay; type: biochemical; conditions: ATP at Km, read-out: IC50(nM) value of compounds FGFR3
T2 sequence (P22607 23-806): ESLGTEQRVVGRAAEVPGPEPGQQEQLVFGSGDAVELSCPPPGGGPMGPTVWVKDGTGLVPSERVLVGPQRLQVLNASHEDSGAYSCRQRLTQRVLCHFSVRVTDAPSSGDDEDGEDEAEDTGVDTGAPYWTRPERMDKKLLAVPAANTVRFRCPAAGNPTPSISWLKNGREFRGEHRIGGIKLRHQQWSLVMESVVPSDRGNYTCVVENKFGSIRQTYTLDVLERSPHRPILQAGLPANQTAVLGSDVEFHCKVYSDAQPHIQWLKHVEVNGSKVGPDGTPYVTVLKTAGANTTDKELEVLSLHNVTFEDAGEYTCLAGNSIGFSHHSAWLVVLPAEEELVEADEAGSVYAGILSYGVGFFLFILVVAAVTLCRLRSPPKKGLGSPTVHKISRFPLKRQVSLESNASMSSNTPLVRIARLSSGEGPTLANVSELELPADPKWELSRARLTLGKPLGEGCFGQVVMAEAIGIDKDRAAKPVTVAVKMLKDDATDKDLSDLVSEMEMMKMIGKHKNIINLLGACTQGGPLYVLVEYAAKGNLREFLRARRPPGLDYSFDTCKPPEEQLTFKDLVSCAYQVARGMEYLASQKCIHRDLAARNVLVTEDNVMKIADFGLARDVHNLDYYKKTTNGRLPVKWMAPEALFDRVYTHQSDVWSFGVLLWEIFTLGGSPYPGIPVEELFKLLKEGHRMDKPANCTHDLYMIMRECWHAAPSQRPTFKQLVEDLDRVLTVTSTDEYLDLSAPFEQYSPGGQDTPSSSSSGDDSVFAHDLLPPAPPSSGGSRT

FGFR4 [3] = target: T3, FGFR4 (Homo sapiens (Human), UniProt P22455); assay: Kinase assay Method 1, mobility shift assay; type: biochemical; conditions: ATP at Km, numeric values, read-out: IC50(nM) value of compounds FGFR4
T3 sequence (P22455 22-802): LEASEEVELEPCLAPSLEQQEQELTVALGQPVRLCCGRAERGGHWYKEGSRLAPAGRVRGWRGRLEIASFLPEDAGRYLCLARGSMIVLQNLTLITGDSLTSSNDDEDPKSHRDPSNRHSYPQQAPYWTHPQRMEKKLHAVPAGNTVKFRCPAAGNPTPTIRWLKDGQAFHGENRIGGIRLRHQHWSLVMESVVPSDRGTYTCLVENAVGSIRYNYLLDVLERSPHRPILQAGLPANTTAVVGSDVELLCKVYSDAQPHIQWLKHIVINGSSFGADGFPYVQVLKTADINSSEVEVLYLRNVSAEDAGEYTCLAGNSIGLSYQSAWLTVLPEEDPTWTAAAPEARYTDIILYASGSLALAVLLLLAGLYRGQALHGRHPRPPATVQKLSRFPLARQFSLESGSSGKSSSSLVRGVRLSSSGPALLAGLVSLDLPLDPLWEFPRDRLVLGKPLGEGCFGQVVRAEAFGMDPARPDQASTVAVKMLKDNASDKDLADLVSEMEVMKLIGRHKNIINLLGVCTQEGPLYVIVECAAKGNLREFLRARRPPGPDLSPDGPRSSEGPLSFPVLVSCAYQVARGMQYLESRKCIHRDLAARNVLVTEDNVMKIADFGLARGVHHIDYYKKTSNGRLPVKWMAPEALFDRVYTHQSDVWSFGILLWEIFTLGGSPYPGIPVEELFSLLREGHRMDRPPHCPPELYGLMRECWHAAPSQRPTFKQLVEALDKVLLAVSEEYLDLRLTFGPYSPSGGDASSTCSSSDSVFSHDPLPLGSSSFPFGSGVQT

NCI-H1581 cells = assay: Cell proliferation assay on NCI-H1581 (Table 7); type: cell-based, human
Text: (§1) Test method: adding the appropriate volume of whole medium and the cells was suspended.

SNU-16 cells = assay: Cell proliferation assay on SNU-16, CellTiter Glo (Table 8); type: cell-based, human; conditions: class symbols, read-out: IC50(nM) value of compounds on SNU-16 cells
Text: as §1

FGFR2 [4] = target: T1, FGFR2; assay: Kinase assay Method 2, isotope-labeled 33P-ATP method; type: biochemical; conditions: ATP at Km, filter-binding, read-out: IC50(nM) value of compounds, FGFR2
Experimental: (§2) Reagent: basic kinase buffer: 20 mM Hepes (pH 7.5), 10 mM MgCl2, 1 mM EGTA, 0.02% Brij35, 0.02 mg/mL BSA, 0.1 mM Na3VO4, 2 mM DTT, 1% DMSO
(§3) Adding the corresponding coenzyme factor to each kinase reaction
(§4) Reaction process: 1) formulating the substrate in freshly configured reaction buffer • 2) adding the required coenzyme factor to the above substrate solution • 3) adding kinase to the substrate solution and mixing gently • 4) adding the compounds dissolved in 100% DMSO to the above kinase reaction mixture, mixed well and incubating for 20 min at room temperature • 5) adding ^33P-ATP (specific activity 10 μCi/μL) to the reaction mixture to initiate the reaction and incubating for 2 h at room temperature • 6) detection of kinase activity by filter-binding The experiment data is shown in table 6: […]

FGFR3 [5] = target: T2, FGFR3; assay: as above; type: biochemical; conditions: ATP at Km, filter-binding, read-out: IC50(nM) value of compounds, FGFR3
Experimental: as §2, §3, §4

FGFR4 [6] = target: T3, FGFR4; assay: as above; type: biochemical; conditions: ATP at Km, filter-binding, read-out: IC50(nM) value of compounds, FGFR4
Experimental: as §2, §3, §4

[7] = system: RT-112 (human bladder cancer cell); assay: Cell proliferation assay, CellTiter Glo (Table 9); type: cell-based
Experimental: (§5) Test method: 100 μl of the cell suspension was added to a 96-well plate and placed in a CO2 incubator overnight. Test compounds were dissolved in DMSO and subjected to a 3-fold gradient dilution for a total of 10 concentrations. The test compound or DMSO was transferred to the corresponding cell wells respectively and was incubated for 96 hrs in 5% CO2 at 37° C. 100 μl of CellTiter-Glo reagent was added to the assay plate and incubated for 10 min at room temperature to stabilize the luminescence signal. The IC50 value was calculated by recording the RLU (relative luminescence unit) using Enspire.

[8] = system: OPM-2 (human myeloma cell); assay: Cell proliferation assay, CellTiter Glo (Table 9); type: cell-based
Experimental: as §5

[9] = system: NCI-H716 (human colorectal cancer cell); assay: Cell proliferation assay, CellTiter Glo (Table 9); type: cell-based
Experimental: as §5

[10] = system: MFE-296 (human endometrial cancer cells); assay: Cell proliferation assay, CellTiter Glo (Table 9); type: cell-based; conditions: WIFE-296 [sic]
Experimental: as §5

[11] = system: JHH-7 (human hepatoma cell); assay: Cell proliferation assay, CellTiter Glo (Table 9); type: cell-based
Experimental: as §5

[12] = system: DMS 114 (human lung cancer cell); assay: Cell proliferation assay, CellTiter Glo (Table 9); type: cell-based
Experimental: as §5

[13] = system: SNU-16 (human gastric cancer cell); assay: Cell proliferation assay, CellTiter Glo (Table 9); type: cell-based
Experimental: as §5

[14] = system: MDA-MB-453 (human breast cancer cell); assay: Cell proliferation assay, CellTiter Glo (Table 9); type: cell-based
Experimental: as §5

[15] = system: NCI-H1581 (human non-small cell lung cancer cells); assay: Cell proliferation assay, CellTiter Glo (Table 9); type: cell-based
Experimental: as §5

[16] = system: RT4 (human bladder cancer cell); assay: Cell proliferation assay, CellTiter Glo (Table 9); type: cell-based; conditions: 96 hrs
Experimental: as §5

[17] = system: cell lines with abnormal changes in FGFR signaling pathway; assay: cells; conditions: Homo sapiens, read-out: IC50 value
Experimental: Test method: 100 μl of the cell suspension was added to a 96-well plate and placed in a CO2 incubator overnight. […] The test compound or DMSO was transferred to the corresponding cell wells respectively and was incubated for 96 hrs in 5% CO2 at 37° C. 100 μl of CellTiter-Glo reagent was added to the assay plate and incubated for 10 min at room temperature to stabilize the luminescence signal. The IC50 value was calculated by recording the RLU (relative luminescence unit) using Enspire.

[18] = Homo sapiens, NCI-H1581, read-out: IC50(nM) value of compounds on NCI-H1581 cells
[19] = Homo sapiens, MDA-MB-453, 96 hrs
[20] = Homo sapiens, NCI-H1581, 96 hrs

T1 sequence (P21802 22-821): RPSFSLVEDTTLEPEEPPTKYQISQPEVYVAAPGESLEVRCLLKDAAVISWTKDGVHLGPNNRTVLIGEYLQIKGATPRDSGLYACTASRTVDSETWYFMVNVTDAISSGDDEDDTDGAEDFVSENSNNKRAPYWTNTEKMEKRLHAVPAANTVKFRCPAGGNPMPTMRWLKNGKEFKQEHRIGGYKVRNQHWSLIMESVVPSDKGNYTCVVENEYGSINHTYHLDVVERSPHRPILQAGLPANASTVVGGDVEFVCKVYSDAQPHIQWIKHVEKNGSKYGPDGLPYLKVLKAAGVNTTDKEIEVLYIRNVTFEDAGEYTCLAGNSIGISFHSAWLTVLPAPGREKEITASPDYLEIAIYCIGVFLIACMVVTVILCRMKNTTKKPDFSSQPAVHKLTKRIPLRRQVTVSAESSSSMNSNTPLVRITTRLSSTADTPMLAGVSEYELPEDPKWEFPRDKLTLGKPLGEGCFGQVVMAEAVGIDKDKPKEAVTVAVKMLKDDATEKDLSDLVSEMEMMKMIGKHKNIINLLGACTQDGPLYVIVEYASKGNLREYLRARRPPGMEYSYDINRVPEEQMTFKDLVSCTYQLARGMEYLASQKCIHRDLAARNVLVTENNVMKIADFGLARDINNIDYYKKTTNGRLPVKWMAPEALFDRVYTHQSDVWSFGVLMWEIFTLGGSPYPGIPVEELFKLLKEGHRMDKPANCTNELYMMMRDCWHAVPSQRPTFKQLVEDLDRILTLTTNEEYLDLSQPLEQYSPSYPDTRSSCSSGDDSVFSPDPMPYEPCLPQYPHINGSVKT

Structure (SMILES): COc1cc(OC)c(Cl)c(-c2cc3cnc(Nc4ccc(N5CCN6CCC[C@@H]6C5)cc4)nc3n3cnnc23)c1 [Compound 24, (R)-6-(2-chloro-3,5-dimethoxyphenyl)-N-(4-(hexahydropyrrolo[1,2-a]pyrazin-2(1H)-yl)phenyl)-[1,2,4]triazolo[4′,3′:1,6]pyrido[2,3-d]pyrimidin-2-amine]
IC50 (FGFR2 [1]): 1.8 nM | IC50 (FGFR3 [2]): 0.8 nM | IC50 (FGFR4 [3]): 26 nM | IC50 (NCI-H1581 cells; [18]): 1.2 nM | IC50 (SNU-16 cells; Homo sapiens, SNU-16, 96 hrs): < 1 nM

Structure (SMILES): CCN1CCN(c2ccc(Nc3ncc4cc(-c5cc(OC)cc(OC)c5Cl)c5nncn5c4n3)cc2)CC1 [Compound 4, 6-(2-chloro-3,5-dimethoxyphenyl)-N-(4-(4-ethylpiperazin-1-yl)phenyl)-[1,2,4]triazolo[4′,3′:1,6]pyrido[2,3-d]pyrimidin-2-amine]
IC50 (FGFR4 [3]): 27 nM | IC50 (FGFR2 [4]): 0.16 nM | IC50 (FGFR3 [5]): 1.34 nM | IC50 (FGFR4 [6]): 5.06 nM | IC50 (NCI-H1581 cells; [18]): 0.4 nM | IC50 ([7]; Homo sapiens, RT-112, 96 hrs): 1 nM | IC50 ([8]; Homo sapiens, OPM-2, 96 hrs): 4 nM | IC50 ([9]; Homo sapiens, NCI-H716, 96 hrs): 0.5 nM | IC50 ([10]; Homo sapiens, MFE-296, 96 hrs): 2.7 nM | IC50 ([11]; Homo sapiens, JHH7, 96 hrs): 6.6 nM | IC50 ([12]; Homo sapiens, DMS-114, 96 hrs): 7.4 nM | IC50 ([13]; Homo sapiens, SNU-16, 96 hrs): 1.1 nM | IC50 [14, 19]: 61.3 nM | IC50 [15, 20]: 1.2 nM | IC50 ([16]; Homo sapiens): 1.9 nM | IC50 [17]: 0.5 to 2.7 nM

IC50 (NCI-H1581 cells; CellTiter 96 AQueous (144 hrs) or CellTiter Glo (96 hrs), numeric values, read-out: IC50(nM) value of compounds on NCI-H1581 cells): 0.5 nM | IC50 (SNU-16 cells; 96 hrs): < 1 nM | IC50 ([7]; 96 hrs): 0.8 nM | IC50 ([8]; 96 hrs): 2.5 nM | IC50 ([9]; 96 hrs): 0.6 nM | IC50 ([10]; 96 hrs): 16.7 nM | IC50 ([11]; 96 hrs): 3.8 nM | IC50 ([12]; 96 hrs): 14.8 nM | IC50 ([13]; 96 hrs): 1.2 nM | IC50 ([14]; 96 hrs): 11 nM | IC50 ([15]; 96 hrs): 1.5 nM | IC50 [16]: 2.4 nM
Structure (SMILES): COc1cc(OC)cc(N(CCNC(C)C)c2ccc3ncc(-c4cnn(C)c4)nc3c2)c1 [JNJ42756493]

Structure (SMILES): COc1cc(OC)c(Cl)c(-c2cc3cnc(Nc4ccc(N5CCN6CCOC[C@@H]6C5)cc4)nc3n3cnnc23)c1 [Compound 42, (S)-6-(2-chloro-3,5-dimethoxyphenyl)-N-(4-(hexahydropyrazino[2,1-c][1,4]oxazin-8(1H)-yl)phenyl)-[1,2,4]triazolo[4′,3′:1,6]pyrido[2,3-d]pyrimidin-2-amine]
IC50 (FGFR2 [1]): 1.3 nM | IC50 (FGFR3 [2]): 1.6 nM | IC50 (NCI-H1581 cells; [18]): 3.2 nM | IC50 (SNU-16 cells; Homo sapiens, SNU-16, 96 hrs): < 1 nM

Structure (SMILES): COc1cc(OC)c(Cl)c(-c2cc3cnc(Nc4ccc(N5C[C@@H](C)N[C@@H](C)C5)cc4)nc3n3cnnc23)c1 [Compound 50, 6-(2-chloro-3,5-dimethoxyphenyl)-N-(4-((3S,5R)-3,5-dimethylpiperazin-1-yl)phenyl)-[1,2,4]triazolo[4′,3′:1,6]pyrido[2,3-d]pyrimidin-2-amine]
IC50 (FGFR4 [3]): 35 nM | IC50 (NCI-H1581 cells; [18]): 0.2 nM | IC50 (SNU-16 cells; Homo sapiens, SNU-16, 96 hrs): < 1 nM

IC50 (NCI-H1581 cells; Homo sapiens, NCI-H1581, CellTiter 96 AQueous (144 hrs) or CellTiter Glo (96 hrs), numeric values, read-out: IC50(nM) value of compounds on NCI-H1581 cells): 3.4 nM | IC50 ([7]; Homo sapiens, RT-112, 96 hrs): 4.4 nM | IC50 ([8]; Homo sapiens, OPM-2, 96 hrs): 18 nM | IC50 ([9]; Homo sapiens, NCI-H716, 96 hrs): 4.6 nM | IC50 ([10]; Homo sapiens, MFE-296, 96 hrs): 51.4 nM | IC50 ([11]; Homo sapiens, JHH7, 96 hrs): 54.1 nM | IC50 ([12]; Homo sapiens, DMS-114, 96 hrs): 33.6 nM | IC50 ([13]; Homo sapiens, SNU-16, 96 hrs): 9.5 nM | IC50 [14, 19]: 544 nM | IC50 [15, 20]: 18.2 nM | IC50 ([16]; Homo sapiens): 16.9 nM
Structure (SMILES): CCN1CCN(c2ccc(Nc3cc(N(C)C(=O)Nc4c(Cl)c(OC)cc(OC)c4Cl)ncn3)cc2)CC1 [BGJ398, Infigratinib]

Structure (SMILES): COc1cc(OC)c(Cl)c(-c2cc3cnc(Nc4ccc(N5CCN6CCC[C@@H]6C5)cc4)nc3n3cnnc23)c1Cl [Compound 64, (R)-6-(2,6-dichloro-3,5-dimethoxyphenyl)-N-(4-(hexahydropyrrolo[1,2-a]pyrazin-2(1H)-yl)phenyl)-[1,2,4]triazolo[4′,3′:1,6]pyrido[2,3-d]pyrimidin-2-amine]
IC50 (FGFR2 [1]): 2.7 nM | IC50 (FGFR3 [2]): 0.6 nM | IC50 (FGFR4 [3]): 14 nM | IC50 (NCI-H1581 cells; [18]): 0.5 nM | IC50 (SNU-16 cells; Homo sapiens, SNU-16, 96 hrs): < 1 nM
